Where a name gives a salt, the structure may show the parent alone.
Tests used:
[1] = tested on: Serotonin (5-HT) in Prefrontal Cortex; experiment: Microdialysis in awake and freely moving rats, 5-HT in prefrontal cortex; type: in vivo, rat; conditions: 50 μmol/kg s.c., awake freely moving rats
From the text: (§1) Male Sprague-Dawley rats weighing 220-320 g were used throughout the experiments. Before the experiment the animals were group housed, five animals in each cage, with free access to water and food. The animals were housed at least one week after arrival prior to surgery and use in the experiments. Each rat was used only once for microdialysis.
(§2) We use a modified version (Waters et al., 1994) of the I-shaped probe (Santiago M & Westerink B H C, 1990). The dialysis membrane we use is the AN69 polyacrylonitrile/sodiummethalylsulfonate copolymer (HOSPAL; o.d./i.d. 310/220 μm: Gambro, Lund, Sweden). In the dorsal striatum we use probes with an exposed length of 3 mm of dialysis membrane and in the prefrontal cortex the corresponding length is 2.5 mm. The rats were operated under isoflurane inhalationanesthesia while mounted into a Kopf stereotaxic instrument. Co-ordinates were calculated relative to bregma; dorsal striatum AP +1, ML ±2.6, DV −6.3; Pf cortex, AP +3.2, 8° ML ±1.2, DV −4.0 according to (Paxinos G & Watson C, 1986). The dialysis probe was positioned in a burr hole under stereotaxic guidance and cemented with phosphatine dental cement.
(§3) The rats were housed individually in cages for 48 h before the dialysis experiments, allowing them to recover from surgery and minimizing the risk of drug interactions with the anaesthetic during the following experiments. During this period the rats had free access to food and water. On the day of experiment the rats were connected to a micro perfusion pump via a swiwel and were replaced in the cage where they could move freely within its confinements. The perfusion medium was a Ringer's solution containing in mmol/l: NaCl; 140, CaCl2; 1.2, KCl; 3.0, MgCl2; 1.0 and ascorbic acid; 0.04 according to (Moghaddam B & Bunney B S, 1989). The pump was set to a perfusion speed of 2 μl/min and 40 μl samples were collected every 20 min. Each sample was analyzed at two HPLC systems. On an autoinjector (CMA 200) with a 10-port valve (Valco C10WE), holding two sample loops in series (4 μl and 20 μl), each brain dialysate sample is loaded in both loops simultaneously. […] The currents generated by the two EC detectors are converted to digital data and evaluated using Chromeleon software (Dionex) on a PC. The method sample turn over time was 4.5 min and two parallel experiments are normally analyzed simultaneously on the system. […]

[2] = tested on: Dopamine (DA) in Striatum; experiment: Microdialysis in awake and freely moving rats, DA in striatum; type: in vivo, rat; conditions: 50 μmol/kg s.c., awake freely moving rats
From the text: as §1, §2, §3

[3] = tested on: Dopamine (DA) in Prefrontal Cortex; experiment: Microdialysis in awake and freely moving rats, DA in prefrontal cortex; type: in vivo, rat; conditions: 50 μmol/kg s.c., awake freely moving rats
From the text: as §1, §2, §3

[4] = tested on: Norepinephrine (NA) in Prefrontal Cortex; experiment: Microdialysis in awake and freely moving rats, NA in prefrontal cortex; type: in vivo, rat; conditions: 50 μmol/kg s.c., awake freely moving rats
From the text: as §1, §2, §3

[5] = tested on: Serotonin (5-HT) in Striatum; experiment: Microdialysis in awake and freely moving rats, 5-HT in striatum; type: in vivo, rat; conditions: 50 μmol/kg s.c., awake freely moving rats
From the text: as §1, §2, §3

[6] = tested on: Norepinephrine (NA) in Striatum; experiment: Microdialysis in awake and freely moving rats, NA in striatum; type: in vivo, rat; conditions: 50 μmol/kg s.c., awake freely moving rats
From the text: as §1, §2, §3

Row | SMILES | 5-HT PFC ± SEM, maximum effect compared to baseline values [1] | DA Stri ± SEM, maximum effect compared to baseline values [2] | DA PFC ± SEM, maximum effect compared to baseline values [3] | NA PFC ± SEM, maximum effect compared to baseline values [4] | 5-HT Stri ± SEM, maximum effect compared to baseline values [5] | NA Stri ± SEM, maximum effect compared to baseline values [6] | melting point [°C]
1 | CCN1CCC(OC)(c2cccc(F)c2F)C1 (single isomer, unassigned; (+)) [Example 6, (+)-3-(2,3-difluorophenyl)-1-ethyl-3-methoxypyrrolidine] | 157 ± 6% of control | 133 ± 9% of control | 297 ± 18% of control | 285 ± 17% of control | 138 ± 9% of control | 113% of control | 
2 | CCN1CCC(OC)(c2cccc(F)c2F)C1 (single isomer, unassigned; (+)) (as salt: fumaric acid salt) [Example 6, (+)-3-(2,3-difluorophenyl)-1-ethyl-3-methoxypyrrolidine] |  |  |  |  |  |  | 104 to 106
3 | COC1(c2cccc(F)c2F)CCNC1 (single isomer, unassigned; (+)) [Example 5, (+)-3-(2,3-difluorophenyl)-3-methoxypyrrolidine] | 260 ± 19% of control | 116 ± 0% of control | 353 ± 61% of control | 437 ± 25% of control | 296 ± 55% of control | 168% of control | 
4 | CCN1CCC(OC)(c2ccc(F)c(F)c2)C1 (centres unmarked) (as salt: oxalic acid salt) [Example 10, 3-(3,4-difluorophenyl)-1-ethyl-3-methoxypyrrolidine] |  |  |  |  |  |  | 135 to 136
5 | COC1(c2cccc(Cl)c2F)CCNC1 (single isomer, unassigned; (+)) (as salt: oxalic acid salt) [Example 1, (+)-3-(3-chloro-2-fluorophenyl)-3-methoxypyrrolidine] |  |  |  |  |  |  | 183 to 185
6 | COC1(c2cc(F)cc(F)c2)CCNC1 (single isomer, unassigned; (+)) (as salt: oxalic acid salt) [Example 14, (+)-3-(3,5-difluorophenyl)-3-methoxypyrrolidine] |  |  |  |  |  |  | 185 to 187
7 | CCN1CCC(OC)(c2cccc(Cl)c2F)C1 (single isomer, unassigned; (+)) (as salt: fumaric acid salt) [Example 2, (+)-3-(3-chloro-2-fluorophenyl)-1-ethyl-3-methoxypyrrolidine] |  |  |  |  |  |  | 131 to 133
8 | COC1(c2cccc(Cl)c2F)CCNC1 (single isomer, unassigned; (+)) [Example 1, (+)-3-(3-chloro-2-fluorophenyl)-3-methoxypyrrolidine] | 327 ± 58% of control | 122 ± 8% of control | 459 ± 103% of control | 660 ± 38% of control | 350 ± 28% of control | 164 ± 22% of control | 
9 | CCN1CCC(OC)(c2cccc(F)c2F)C1 (single isomer, unassigned; (-)) [Example 8, (−)-3-(2,3-difluorophenyl)-1-ethyl-3-methoxypyrrolidine] | 197% of control | 119 ± 3% of control | 252% of control | 282% of control | 187% of control | 169 ± 28% of control | 
10 | COC1(c2cccc(F)c2F)CCNC1 (single isomer, unassigned; (+)) (as salt: oxalic acid salt) [Example 5, (+)-3-(2,3-difluorophenyl)-3-methoxypyrrolidine] |  |  |  |  |  |  | 182 to 184
11 | CCN1CCC(OC)(c2cccc(F)c2F)C1 (single isomer, unassigned; (-)) (as salt: fumaric acid salt) [Example 8, (−)-3-(2,3-difluorophenyl)-1-ethyl-3-methoxypyrrolidine] |  |  |  |  |  |  | 105 to 107
12 | CCN1CCC(OC)(c2cccc(F)c2F)C1 (centres unmarked) (as salt: fumaric acid salt) [Example 13, 3-(2,3-difluorophenyl)-1-ethyl-3-methoxypyrrolidine] |  |  |  |  |  |  | 94 to 98
